Source: the NIST ThermoML archive (doi:10.1016/j.fluid.2005.07.010)
Numbers after ± are expanded uncertainties.

Conditions: Liquid; for mass density / viscosity: 298.15 K, 101.33 kPa; for Normal boiling temperature: Ebulliometric method (Recirculating still)

Row | SMILES | mass density [kg/m3] | viscosity [mPa·s] | Normal boiling temperature [°C]
1 | CCOC(C)=O [ethyl acetate] | 894.4 ± 0.4 | 0.426 ± 0.016 | 77.12 ± 0.2
2 | CC(=O)O [acetic acid] | 1043.6 ± 0.6 | 1.115 ± 0.035 | 117.80 ± 0.2
3 | CCO [ethanol] | 785.4 ± 0.6 | 1.082 ± 0.034 | 78.28 ± 0.2
